Legend:
Test in all cases: Glasshouse herbicidal test, pre- and post-emergence, percentage damage to the plant
Format in all cases: in vivo
Setaria faberi (SETFA) = details: 250 g/h, evaluated after 13 days; for SETFA POST percentage damage caused to the plant (five-point scale): post-emergence; for SETFA PRE percentage damage caused to the plant (five-point scale): pre-emergence
Experimental: (§1) Seeds of a variety of test species are sown in standard soil in pots (Lolium perenne (LOLPE), Setaria faberi (SETFA), Alopecurus myosuroides (ALOMY), Echinochloa crus-galli (ECHCG), Avena fatua (AVEFA)). After cultivation for one day (pre-emergence) or after 8 days cultivation (post-emergence) under controlled conditions in a glasshouse (at 24/16° C., day/night; 14 hours light; 65% humidity), the plants are sprayed with an aqueous spray solution derived from the formulation of the technical active ingredient in acetone/water (50:50) solution containing 0.5% Tween 20 (polyoxyethelyene sorbitan monolaurate, CAS RN 9005-64-5). Compounds are applied at 250 g/h. The test plants are then grown in a glasshouse under controlled conditions in a glasshouse (at 24/16° C., day/night; 14 hours light; 65% humidity) and watered twice daily. After 13 days for pre and post-emergence, the test is evaluated for the percentage damage caused to the plant. The biological activities are shown in the following table on a five-point scale (5=80-100%; 4=60-79%; 3=40-59%; 2=20-39%; 1=0-19%).

[1] = test system: Echinochloa crus-galli (ECHCG); details: 250 g/h, evaluated after 13 days; for ECHCG POST percentage damage caused to the plant (five-point scale): post-emergence; for ECHCG PRE percentage damage caused to the plant (five-point scale): pre-emergence
Experimental: as §1

[2] = test system: Alopecurus myosuroides (ALOMY); details: 250 g/h, evaluated after 13 days; for ALOMY POST percentage damage caused to the plant (five-point scale): post-emergence; for ALOMY PRE percentage damage caused to the plant (five-point scale): pre-emergence
Experimental: as §1

Avena fatua (AVEFA) = details: 250 g/h, evaluated after 13 days; for AVEFA POST percentage damage caused to the plant (five-point scale): post-emergence; for AVEFA PRE percentage damage caused to the plant (five-point scale): pre-emergence
Experimental: as §1

Lolium perenne (LOLPE) = details: 250 g/h, evaluated after 13 days; for LOLPE POST percentage damage caused to the plant (five-point scale): post-emergence; for LOLPE PRE percentage damage caused to the plant (five-point scale): pre-emergence
Experimental: as §1

SMILES | SETFA POST percentage damage caused to the plant (five-point scale) (Setaria faberi (SETFA)) | SETFA PRE percentage damage caused to the plant (five-point scale) (Setaria faberi (SETFA)) | ECHCG POST percentage damage caused to the plant (five-point scale) [1] | ECHCG PRE percentage damage caused to the plant (five-point scale) [1] | ALOMY POST percentage damage caused to the plant (five-point scale) [2] | ALOMY PRE percentage damage caused to the plant (five-point scale) [2] | AVEFA POST percentage damage caused to the plant (five-point scale) (Avena fatua (AVEFA)) | AVEFA PRE percentage damage caused to the plant (five-point scale) (Avena fatua (AVEFA)) | LOLPE POST percentage damage caused to the plant (five-point scale) (Lolium perenne (LOLPE)) | LOLPE PRE percentage damage caused to the plant (five-point scale) (Lolium perenne (LOLPE))
CC#Cc1cc(C)c(C2C(=O)CC3(C=CN(C(=O)CC#N)CC3)CC2=O)c(C)c1 (centres unmarked) [Compound A51] | 5 (5=80-100%) | 5 (5=80-100%) | 5 (5=80-100%) | 5 (5=80-100%) | 5 (5=80-100%) | 5 (5=80-100%) | 5 (5=80-100%) | 5 (5=80-100%) | 5 (5=80-100%) | 5 (5=80-100%)
CC#Cc1cc(C)c(C2C(=O)CC3(C=CN(C(=O)COC(F)F)CC3)CC2=O)c(C)c1 (centres unmarked) [Compound A50] | 5 (5=80-100%) | 5 (5=80-100%) | 5 (5=80-100%) | 5 (5=80-100%) | 5 (5=80-100%) | 5 (5=80-100%) | 5 (5=80-100%) | 5 (5=80-100%) | 5 (5=80-100%) | 5 (5=80-100%)
CC#Cc1cc(C)c(C2C(=O)CC3(CCN(C(C)=O)CC3C)CC2=O)c(C)c1 (centres unmarked) [Compound A59] | 5 (5=80-100%) | 5 (5=80-100%) | 5 (5=80-100%) | 5 (5=80-100%) | 5 (5=80-100%) | 5 (5=80-100%) | 5 (5=80-100%) | 5 (5=80-100%) | 5 (5=80-100%) | 5 (5=80-100%)
CC#Cc1cc(C)c(C2C(=O)CC3(CCN4C(=O)CCCC4C3)CC2=O)c(C)c1 (centres unmarked) [Compound A13] | 5 (5=80-100%) | 5 (5=80-100%) | 5 (5=80-100%) | 5 (5=80-100%) | 5 (5=80-100%) | 5 (5=80-100%) | 5 (5=80-100%) | 5 (5=80-100%) | 5 (5=80-100%) | 5 (5=80-100%)
CC#Cc1cc(C)c(C2=C(OC(C)=O)CC3(CCCN(C(C)=O)CC3)CC2=O)c(C)c1 (centres unmarked) [Compound P1] | 5 (5=80-100%) | 5 (5=80-100%) | 5 (5=80-100%) | 5 (5=80-100%) | 5 (5=80-100%) | 5 (5=80-100%) | 5 (5=80-100%) | 5 (5=80-100%) | 5 (5=80-100%) | 5 (5=80-100%)
CC#Cc1cc(C)c(C2C(=O)CC3(CCCN(S(=O)(=O)CC)CC3)CC2=O)c(C)c1 (centres unmarked) [Compound A8] | 5 (5=80-100%) | 5 (5=80-100%) | 5 (5=80-100%) | 5 (5=80-100%) | 5 (5=80-100%) | 5 (5=80-100%) | 5 (5=80-100%) | 5 (5=80-100%) | 5 (5=80-100%) | 5 (5=80-100%)
CC#Cc1cc(C)c(C2C(=O)CC3(CCCN(C(C)=O)C3)CC2=O)c(C)c1 (centres unmarked) [Compound A3] | 5 (5=80-100%) | 3 (3=40-59%) | 5 (5=80-100%) | 2 (2=20-39%) | 5 (5=80-100%) | 2 (2=20-39%) | 5 (5=80-100%) | 3 (3=40-59%) | 5 (5=80-100%) | 2 (2=20-39%)
CC#Cc1cc(C)c(C2C(=O)CC3(C=CN(C(=O)C(F)F)CC3)CC2=O)c(C)c1 (centres unmarked) [Compound A56] | 5 (5=80-100%) | 5 (5=80-100%) | 5 (5=80-100%) | 5 (5=80-100%) | 5 (5=80-100%) | 5 (5=80-100%) | 5 (5=80-100%) | 5 (5=80-100%) | 5 (5=80-100%) | 5 (5=80-100%)
CC#Cc1cc(C)c(C2C(=O)CC3(CCN(C)C(=O)C3=O)CC2=O)c(C)c1 (centres unmarked) [Compound A5] | 5 (5=80-100%) | 5 (5=80-100%) | 5 (5=80-100%) | 5 (5=80-100%) | 5 (5=80-100%) | 3 (3=40-59%) | 4 (4=60-79%) | 3 (3=40-59%) | 5 (5=80-100%) | 5 (5=80-100%)
CC#Cc1cc(C)c(C2C(=O)CC3(C=CN(C(=O)C4CC4)CC3)CC2=O)c(C)c1 (centres unmarked) [Compound A49] | 5 (5=80-100%) | 5 (5=80-100%) | 5 (5=80-100%) | 5 (5=80-100%) | 5 (5=80-100%) | 5 (5=80-100%) | 5 (5=80-100%) | 5 (5=80-100%) | 5 (5=80-100%) | 5 (5=80-100%)
CC#Cc1cc(C)c(C2=C(OC(C)=O)CC3(CCN(C(C)=O)C(=O)C3)CC2=O)c(C)c1 (centres unmarked) [Compound P2] | 5 (5=80-100%) | 5 (5=80-100%) |  | 5 (5=80-100%) | 5 (5=80-100%) | 5 (5=80-100%) | 5 (5=80-100%) | 5 (5=80-100%) | 5 (5=80-100%) | 5 (5=80-100%)
CC#Cc1cc(C)c(C2=C(OC(=O)OC)CC3(CCN(C(C)=O)C3)CC2=O)c(C)c1 (centres unmarked) [Compound P3] | 5 (5=80-100%) | 5 (5=80-100%) | 5 (5=80-100%) | 5 (5=80-100%) | 5 (5=80-100%) | 5 (5=80-100%) | 5 (5=80-100%) | 4 (4=60-79%) | 5 (5=80-100%) | 5 (5=80-100%)
